This is an account of results in paper PMC9570041, “Synthesis of Novel α-Trifluoroanisole Derivatives Containing Phenylpyridine Moieties with Herbicidal Activity” (International Journal of Molecular Sciences, 2022).

This assay concerns the target T1, Nicotiana tabacum protoporphyrinogen oxidase (NtPPO) (Nicotiana tabacum, UniProt O24164).
T1 construct: gene PPXII
T1 sequence (O24164 1-504): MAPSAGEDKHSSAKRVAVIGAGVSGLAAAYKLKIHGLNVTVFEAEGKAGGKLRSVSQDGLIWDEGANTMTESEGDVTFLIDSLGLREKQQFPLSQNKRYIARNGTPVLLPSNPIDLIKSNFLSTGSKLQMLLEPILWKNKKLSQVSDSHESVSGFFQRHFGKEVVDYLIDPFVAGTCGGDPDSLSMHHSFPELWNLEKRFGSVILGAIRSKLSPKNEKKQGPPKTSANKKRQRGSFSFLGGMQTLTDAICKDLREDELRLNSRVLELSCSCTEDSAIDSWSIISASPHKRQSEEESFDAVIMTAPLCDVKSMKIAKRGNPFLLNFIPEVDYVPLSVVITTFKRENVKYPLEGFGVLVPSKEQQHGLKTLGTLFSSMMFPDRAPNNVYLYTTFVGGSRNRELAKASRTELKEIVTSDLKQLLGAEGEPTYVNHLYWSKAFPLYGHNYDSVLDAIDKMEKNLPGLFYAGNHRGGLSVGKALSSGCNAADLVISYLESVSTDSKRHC
The assay is described as follows: NtPPO inhibition in vitro, protoporphyrin IX formation by absorbance at […] nm. The assay is classed as biochemical.

Where two headings read alike, the source gives them in different places.

Usually IC50 stands for the concentration at which inhibition is half-maximal.

For the molecule `FC(F)(F)Oc1ccc(COc2ccc(-c3ncc(C(F)(F)F)cc3Cl)cc2)cc1` [7a, 3-Chloro-2-(4-((4-(trifluoromethoxy)benzyl)oxy)phenyl)-5-(trifluoromethyl)pyridine], the IC50 was found to be 9.4 ± 2.2 nM.

As to `CS(=O)(=O)NC(=O)c1cc(Oc2ccc(C(F)(F)F)cc2Cl)ccc1[N+](=O)[O-]` [fomesafen], where the note is “read-out: IC50”, the half-inhibitory concentration (IC50) was found to be 110 ± 1.2 nM.
